Like-named read-outs stand apart in the source and are kept apart here.
Columns and labels:
[1] = Oxidation potential (Eox) of the dye; assay type: physicochemical; settings: Tables I, II, V, VI
[2] = system: Bacillus pumilus strain K-1; experiment: Inhibition of bacterial growth, filter paper on inoculated agar plates; assay type: cell-based; settings: for zone of inhibition at 1000 µM / zone of inhibition at 100 µM: Bacillus pumilus, read-out: Diameter of Inhibition
Method: Nutrient broth was prepared by mixing 8 grams of BACTO dehydrated nutrient broth per liter of distilled water. […] Samples of the nutrient broth were then inoculated with Bacillus pumilus strain K-1 culture. […]
Nutrient agar was prepared by mixing 23 grams of BACTO nutrient agar per liter of distilled water. The nutrient agar was sterilized in the same way as the nutrient broth. After it has cooled to about 45° C. 250 ml of the nutrient agar solution was aeseptically inoculated with 5 ml of the Bacillus pumilus, K-1 culture prepared in (A), above. Plates of the inoculated nutrient agar were then poured and allowed to harden.
[…] To minimize possible photocatalyzed reactions of the dyes, all preparations were performed under yellow lights and all incubations were performed in the dark.
Schleider and Schuell #740-E filter paper (12.7 mm diameter) was dipped in the dye solution, touched to the side of the beaker to removed excess dye, and placed in the center of the inoculated agar plates (prepared in (B) above). […] The plates were then examined to determine if bacterial growth had been affected by the dye-containing filter paper. […]
Control plates were prepared in which the filter paper contained methanol or a 0.2 molar aqueous solution of phenol. […]

[3] = not told
Method: If a published reduction potential is not available, suitable techniques for measuring reduction potential are available and can be used. […] This technique involves measurement at 20° C., of an approximately 10^-4 molar solution of the dye in an electrolyte, such as methanol which is 0.05 molar in lithium chloride, using a dropping mercury electrode. The potential values are reported by reference to a silver-silver chloride electrode in a saturated solution of potassium chloride at 20° C.

Bacillus pumilus (K-1) = system: Bacillus pumilus (K-1)
Method: This can be accomplished by contacting a given concentration of the dye with the cells, removing the cells from the dye solution and then comparing the optical density (at λmax) of the remaining dye solution with a control containing the original concentration of the dye. The percentage decrease in optical density indicates the percentage of dye which has been bound to the cells.
The culture was collected by centrifugation at 5,000×g. for 10 minutes, and the resultant pellet was washed several times in cold 0.05 M potassium phosphate buffer, pH 7.0. The pellet was resuspended in the buffer solution to a final optical density of 1.0 at 620 nm as measured with a Bausch and Lomb Spectronic 20.
One-tenth ml of dye solution (1 mg/ml in methanol) was added to a tube containing 5 ml of cell suspension described above and a control tube containing 0.05 M potassium phosphate buffer, pH 7.0. All tubes were well agitated using a Vari-Whirl Mixer (Will Scientific Co.) and then centrifuged at 10,000×g. for 10 minutes.
The percent binding of dye to the cells for each dye, was determined by comparison of the density at λmax of the control supernatant sample with the density at λmax of the supernatant of the cell sample.

Sea Urchin Eggs = experiment: Inhibition of cell division in fertilized sea urchin eggs; assay type: cell-based; settings: arbitrary scale 0 to 5, 5 most active; dye 10^-5 to 10^-6 molar, 60 minutes after fertilization
Method: To suspensions in filtered sea water of fertilized sea urchin eggs there was added, three minutes after fertilization, methanolic solutions of the dyes in an amount sufficient to yield a final concentration of dye of between 10^-5 and 10^-6 molar. The final concentration of methanol was, at a maximum 1×10^-4 molar. The eggs were visually observed at 60 minutes after fertilization to determine if cell division and the formation of mitotic apparatus had been inhibited. A rating was assigned based on the concentration of dye required to inhibit cell division and synthesis of DNA.

[4] = K1, 72 h, Tables V and VI, 10^-3 molar, three days
[5] = Table II, 10^-4 molar, 26° C., forty-eight hours
[6] = K1, Table II, 10^-4 molar, 26° C., forty-eight hours

| Compound | ER [3] | Activity Rating [2] | % Bound (Bacillus pumilus (K-1)) | reduction potential (ER) [3] | Sea Urchin Eggs Activity (Sea Urchin Eggs) | further results |
| --- | --- | --- | --- | --- | --- | --- |
| CCN1C(=CC=Cc2oc3ccc(C)cc3[n+]2CC)Oc2ccc(C)cc21 [7,5,5'-dimethyl] | -1.28 |  |  |  |  | Eox [1]: +.96; zone of inhibition at 1000 µM [2, 4]: 27 mm |
| CCN1C(=CC=Cc2oc3cc(Cl)ccc3[n+]2CC)Oc2cc(Cl)ccc21 [7,6,6'-dichloro] | -1.17 |  |  |  |  | Eox [1]: +1.07; zone of inhibition at 1000 µM [2, 4]: 28.5 mm |
| CCN1C(=CC=Cc2oc3cc(OC)ccc3[n+]2CC)Oc2cc(OC)ccc21 [7,6,6'-dimethoxy] | -1.31 |  |  |  |  | Eox [1]: +.84; zone of inhibition at 1000 µM [2, 4]: 28.5 mm |
| CCN1C(=CC=Cc2oc3cc(S(=O)(=O)[O-])ccc3[n+]2CC)Oc2cc(S(=O)(=O)O)ccc21 [7,6,6'-disulfo] | -1.26 |  |  |  |  | Eox [1]: +1.00; Diameter of Inhibition ([2]; Tables V and VI, 10^-3 molar, three days): None |
| CCN1C(=CC=Cc2sc3ccc(Cl)cc3[n+]2CC)Sc2ccc(Cl)cc21 [17,5,5'-dichloro] | -.86 |  |  |  |  | Eox [1]: +.85; zone of inhibition at 1000 µM [2, 4]: 14 mm |
| CCN1C(=Cc2sc3ccc4ccccc4c3[n+]2CC)Sc2ccc3ccccc3c21 [Dye 2] | -1.60 | 0 | 31.8% | -1.60 volts |  | Diameter of Inhibition [2, 5]: None; Diameter of Inhibition ([2]; Table IX, 10^-3 M): None; Diameter of Inhibition ([2]; Table IX, 10^-4 M): None |
| CCN1C(=CC=Cc2scc(-c3ccccc3)[n+]2CC)SC=C1c1ccccc1 [Dye 3] | -1.35 | 29 | 11.2% | -1.35 volts | +5 | zone of inhibition at 100 µM ([2]; K1, Table I, 10^-4 molar, 26° C., fifty hours, dark): 18.5 mm; zone of inhibition at 100 µM [2, 6]: 19 mm; zone of inhibition at 100 µM ([2]; K1, Table IX, 10^-4 M): 19 mm |
| CCN1C(=CC=Cc2oc3cc(OC)ccc3[n+]2CC)Oc2cc(OC)ccc21 [Dye 4] |  | 71 | 97.2% | -1.31 volts | +4 | zone of inhibition at 1000 µM ([2]; K1, Table IX, 10^-3 M): 28.5 mm |
| CCN1C(=CC=Cc2oc3ccc(C)cc3[n+]2CC)Oc2ccc(C)cc21 [Dye 5] |  | 65 | 97.6% | -1.28 volts | +4 | zone of inhibition at 1000 µM ([2]; K1, Table IX, 10^-3 M): 27 mm |
| CCN1C(=CC=Cc2oc3ccc(S(=O)(=O)O)cc3[n+]2CC)Oc2ccc(S(=O)(=O)[O-])cc21 [Dye 6] |  | 0 | 3.3% | -1.27 volts |  | Diameter of Inhibition ([2]; Table IX, 10^-3 M): None |
| CCN1C(=CC=Cc2oc3cc(S(=O)(=O)O)ccc3[n+]2CC)Oc2cc(S(=O)(=O)[O-])ccc21 [Dye 8] |  | 0 | 2.6% | -1.26 volts |  | Diameter of Inhibition ([2]; Table IX, 10^-3 M): None |
| CCN1C(=CC=Cc2oc3cc(Cl)ccc3[n+]2CC)Oc2cc(Cl)ccc21 [Dye 9] | -1.18 | 71 | 95.1% | -1.18 volts |  | zone of inhibition at 1000 µM ([2]; K1, Table IX, 10^-3 M): 30.5 mm |
| CCN1C(=CC=Cc2oc3ccc(OC(C)=O)cc3[n+]2CC)Oc2ccc(OC(C)=O)cc21 [Dye 10] | -1.17 | 80 | 68.8% | -1.17 volts |  | zone of inhibition at 1000 µM ([2]; K1, Table IX, 10^-3 M): 28.5 mm |
| CCN1C(=CC(C)=Cc2sc3ccccc3[n+]2CC)Sc2ccccc21 [Dye 11] | -1.16 | 25 | 98.9% | -1.16 volts |  | zone of inhibition at 100 µM [2, 6]: 18 mm; zone of inhibition at 100 µM ([2]; K1, Table IX, 10^-4 M): 18 mm |
| CCN1C(=Cc2sc3ccccc3[n+]2C)C=Cc2ccccc21 [Dye 14] | -1.08 | 11 | 58.3% | -1.08 volts |  | zone of inhibition at 100 µM [2, 6]: 15 mm; zone of inhibition at 100 µM ([2]; K1, Table IX, 10^-4 M): 15 mm |
| CCC(=Cc1sc2ccc(Cl)cc2[n+]1CC)C=C1Sc2ccc(Cl)cc2N1CC [Dye 15] | -1.06 | 04 | 74.9% | -1.06 volts | +4 | zone of inhibition at 100 µM [2, 6]: 13.5 mm; zone of inhibition at 100 µM ([2]; K1, Table IX, 10^-4 M): 13.5 mm |
| CCN1C(=Cc2ccc3ccccc3[n+]2CC)C=Cc2ccccc21 [Dye 16] | -1.03 | 100 | 28.7% | -1.03 volts | +5 | zone of inhibition at 100 µM [2, 6]: 25.5 mm; zone of inhibition at 100 µM ([2]; K1, Table IX, 10^-4 M): 25.5 mm |
| CCN1C(=CC=Cc2sc3cc4ccccc4cc3[n+]2CC)Sc2cc3ccccc3cc21 [Dye 19] |  |  | 100% |  | 0 |  |
| CCN1C(=CC=Cc2sc3ccc(Cl)cc3[n+]2CC)Sc2ccc(Cl)cc21 [Dye 20] |  | 9 | 76.3% | -0.86 volts | +3 | zone of inhibition at 1000 µM ([2]; K1, Table IX, 10^-3 M): 14 mm |
| CCN1C(=CC=CC=Cc2sc3ccccc3[n+]2CC)Sc2ccccc21 [Dye 22] |  |  | 98.4% | -0.83 volts |  | zone of inhibition at 100 µM [2, 6]: 15 mm; zone of inhibition at 100 µM ([2]; K1, Table IX, 10^-4 M): 15 mm; Activity Rating ([2]; Table IX, 10^-4 M, relative to phenol concentration giving equal diameter, Dye 7 = 100): 11 |
| Clc1ccc2nc3c(nc2c1)N(c1ccccc1)C(=CC=Cc1n(-c2ccccc2)c2nc4ccc(Cl)cc4nc2[n+]1-c1ccccc1)N3c1ccccc1 [Dye 25] |  |  | 92.6% | -0.65 volts | 0 |  |
| CCN1C(=Cc2ccc3ccccc3[n+]2CC)Sc2cc([N+](=O)[O-])ccc21 [Dye 28] |  | 0 | 57.3% | -0.60 volts |  | Diameter of Inhibition [2, 5]: None; Diameter of Inhibition ([2]; Table IX, 10^-4 M): None |
| Cn1c(-c2ccccc2)c(C=CC=C2C(c3ccccc3)=[N+](C)c3c2ccc2ccccc32)c2ccc3ccccc3c21 [Dye 34] |  | 0 | 75.0% | -0.11 volts | 0 | Diameter of Inhibition ([2]; Table I, 10^-4 molar, 26° C., fifty hours, dark): None; Diameter of Inhibition [2, 5]: None; Diameter of Inhibition ([2]; Table IX, 10^-4 M): None |

— US4232121A, “Process for selecting methine dyes which inhibit cell growth” (Eastman Kodak Company, priority 1978, dated 1980)
